Reference: US20250026752A1, “POSITIVE ALLOSTERIC MODULATORS OF THE MUSCARINIC ACETYLCHOLINE RECEPTOR M4” (Vanderbilt University, priority 2021, published 2025)

Biological target: T1, human mAChR M4 (Homo sapiens, UniProt P08173)
T1 construct: expressed in transfected cells; host or cells: CHO-K1 (ATCC), stably expressing hM4 and Gqi5
T1 sequence (P08173 1-479): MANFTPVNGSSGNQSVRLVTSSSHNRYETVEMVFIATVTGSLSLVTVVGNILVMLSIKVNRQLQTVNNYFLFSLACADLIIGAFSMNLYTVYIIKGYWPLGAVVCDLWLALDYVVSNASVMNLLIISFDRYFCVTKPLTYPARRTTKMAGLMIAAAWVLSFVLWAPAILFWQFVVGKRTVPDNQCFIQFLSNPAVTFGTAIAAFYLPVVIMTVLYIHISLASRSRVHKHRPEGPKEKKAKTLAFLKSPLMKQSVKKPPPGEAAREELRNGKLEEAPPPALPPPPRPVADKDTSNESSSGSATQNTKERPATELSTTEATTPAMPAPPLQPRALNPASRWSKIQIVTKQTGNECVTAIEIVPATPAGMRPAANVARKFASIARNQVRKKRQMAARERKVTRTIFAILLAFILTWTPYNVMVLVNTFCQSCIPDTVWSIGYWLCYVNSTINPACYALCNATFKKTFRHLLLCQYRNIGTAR
Experiment: mAChR M4 cell-based functional assay: calcium flux (Fluo-4, FDSS), positive allosteric modulator activity on the EC20 acetylcholine response, hM4-Gqi5 CHO-K1 cells
Details: for Emax at 30 µM: CHO-K1, human M4, % ACh maximum at 30 μM; for EC50: human M4, PAM activity on EC20 acetylcholine response, calcium flux, read-out: Human M4 EC50
Method in brief: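 CHO-K1 cells stably expressing human M4 with chimeric Gqi5, loaded with Fluo-4 AM for 50 min at 37° C. Compounds (11-point, 1:3 dilutions) added first, then an acetylcholine EC20 at 144 s; calcium read on FDSS at 1 Hz. EC50 is the half-maximal increase above the EC20 baseline, four-parameter logistic fit.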

Row | SMILES | Emax at 30 µM | EC50
1 | CC1CN(c2ncnc3ccc(F)cc23)Cc2cc(N(c3cccnc3)c3cccnc3)cnc21 (centres unmarked) [Compound 235, 6-(6-fluoroquinazolin-4-yl)-8-methyl-N,N-di(pyridin-3-yl)-5,6,7,8-tetrahydro-1,6-naphthyridin-3-amine] | 77% | 630 nM
2 | CC1CN(c2ncnc3ccc(F)cc23)Cc2cc(Nc3ncnc4ccc(F)cc34)cnc21 (centres unmarked) [Compound 237, 6-fluoro-N-(6-(6-fluoroquinazolin-4-yl)-8-methyl-5,6,7,8-tetrahydro-1,6-naphthyridin-3-yl)quinazolin-4-amine] | 55% | 1400 nM
3 | Fc1cc2ncnc(N3CCc4ncc(-n5cccn5)cc4C3)c2cc1F [Compound 238, 4-(3-(1H-pyrazol-1-yl)-7,8-dihydro-1,6-naphthyridin-6(5H)-yl)-6,7-difluoroquinazoline] | 65% | 220 nM
4 | Cn1nccc1-c1cnc2c(c1)CN(c1ncnc3cc(F)c(F)cc13)CC2 [Compound 239, 6,7-difluoro-4-(3-(1-methyl-1H-pyrazol-5-yl)-7,8-dihydro-1,6-naphthyridin-6(5H)-yl)quinazoline] | 73% | 800 nM
5 | Cc1noc(C)c1-c1cnc2c(c1)CN(c1ncnc3cc(F)c(F)cc13)CC2 [Compound 240, 4-(6-(6,7-difluoroquinazolin-4-yl)-5,6,7,8-tetrahydro-1,6-naphthyridin-3-yl)-3,5-dimethylisoxazole] | 79% | 210 nM
6 | c1cnc2nc(NC3CC3)nc(N3CCc4ncc(N5CCCn6nccc65)cc4C3)c2c1 [Compound 244, N-cyclopropyl-4-(3-(6,7-dihydropyrazolo[1,5-a]pyrimidin-4(5H)-yl)-7,8-dihydro-1,6-naphthyridin-6(5H)-yl)pyrido[2,3-d]pyrimidin-2-amine] | 70% | 240 nM
7 | c1cnc2nc(NC3CCOC3)nc(N3CCc4ncc(N5CCCn6nccc65)cc4C3)c2c1 (centres unmarked) [Compound 245, 4-(3-(6,7-dihydropyrazolo[1,5-a]pyrimidin-4(5H)-yl)-7,8-dihydro-1,6-naphthyridin-6(5H)-yl)-N-(tetrahydrofuran-3-yl)pyrido[2,3-d]pyrimidin-2-amine] | 80% | 220 nM
8 | CC(C)(O)CNc1nc(N2CCc3ncc(N4CCCn5nccc54)cc3C2)c2cccnc2n1 [Compound 247, 1-((4-(3-(6,7-dihydropyrazolo[1,5-a]pyrimidin-4(5H)-yl)-7,8-dihydro-1,6-naphthyridin-6(5H)-yl)pyrido[2,3-d]pyrimidin-2-yl)amino)-2-methylpropan-2-ol] | 80% | 370 nM
9 | OC1(C2CC2)CN(c2nc(N3CCc4ncc(N5CCCn6nccc65)cc4C3)c3cccnc3n2)C1 [Compound 248, 3-cyclopropyl-1-(4-(3-(6,7-dihydropyrazolo[1,5-a]pyrimidin-4(5H)-yl)-7,8-dihydro-1,6-naphthyridin-6(5H)-yl)pyrido[2,3-d]pyrimidin-2-yl)azetidin-3-ol] | 82% | 300 nM
10 | CC1(C)CN(c2nc(N3CCc4ncc(N5CCCn6nccc65)cc4C3)c3cccnc3n2)CCO1 [Compound 249, 4-(4-(3-(6,7-dihydropyrazolo[1,5-a]pyrimidin-4(5H)-yl)-7,8-dihydro-1,6-naphthyridin-6(5H)-yl)pyrido[2,3-d]pyrimidin-2-yl)-2,2-dimethylmorpholine] | 47% | 810 nM
11 | c1cnc2nc(N3CCOCC3)nc(N3CCc4ncc(N5CCCn6nccc65)cc4C3)c2c1 [Compound 250, 4-(4-(3-(6,7-dihydropyrazolo[1,5-a]pyrimidin-4(5H)-yl)-7,8-dihydro-1,6-naphthyridin-6(5H)-yl)pyrido[2,3-d]pyrimidin-2-yl)morpholine] | 73% | 360 nM
12 | CC1CN(c2ncnc3ccc(F)cc23)Cc2cc(N3C(=O)COc4ccccc43)cnc21 (centres unmarked) [Compound 251, 4-(6-(6-fluoroquinazolin-4-yl)-8-methyl-5,6,7,8-tetrahydro-1,6-naphthyridin-3-yl)-2H-benzo[b][1,4]oxazin-3(4H)-one] | 75% | 750 nM
13 | Cc1nc(N2CCc3ncc(-c4ccnn4C(C)C)cc3C2)c2cc(Cl)ccc2n1 [Compound 254, 6-chloro-4-(3-(1-isopropyl-1H-pyrazol-5-yl)-7,8-dihydro-1,6-naphthyridin-6(5H)-yl)-2-methylquinazoline] | 86% | 360 nM
14 | Cc1nc(N2CCc3ncc(-c4ccnn4C4COC4)cc3C2)c2cc(Cl)ccc2n1 [Compound 255, 6-chloro-2-methyl-4-(3-(1-(oxetan-3-yl)-1H-pyrazol-5-yl)-7,8-dihydro-1,6-naphthyridin-6(5H)-yl)quinazoline] | 76% | 610 nM
15 | Cc1nc(N2CCc3ncc(-c4cc(C(F)(F)F)nn4C)cc3C2)c2cc(Cl)ccc2n1 [Compound 257, 6-chloro-2-methyl-4-(3-(1-methyl-3-(trifluoromethyl)-1H-pyrazol-5-yl)-7,8-dihydro-1,6-naphthyridin-6(5H)-yl)quinazoline] | 87% | 830 nM
16 | C[C@H]1CN(c2ncnc3cc(F)c(F)cc23)Cc2cc(N3CCOCC3)cnc21 [Compound 261, (S)-4-(6-(6,7-difluoroquinazolin-4-yl)-8-methyl-5,6,7,8-tetrahydro-1,6-naphthyridin-3-yl)morpholine] | 79% | 440 nM
17 | C[C@H]1CN(c2ncnc3ccc(F)cc23)Cc2cc(N3CCOCC3)cnc21 [Compound 262, (S)-4-(6-(6-fluoroquinazolin-4-yl)-8-methyl-5,6,7,8-tetrahydro-1,6-naphthyridin-3-yl)morpholine] | 73% | 260 nM

The next molecules have a lower EC50 than those just listed; values first:

Row | Emax at 30 µM | EC50 | SMILES
18 | 86% | 140 nM | CC1CN(c2ncnc3ccc(F)cc23)Cc2cc(N3CCOCC3)cnc21 (centres unmarked) [Compound 236, 4-(6-(6-fluoroquinazolin-4-yl)-8-methyl-5,6,7,8-tetrahydro-1,6-naphthyridin-3-yl)morpholine]
19 | 77% | 80 nM | C[C@@H]1CN(c2cnc3c(c2)CN(c2ncnc4cc(F)c(F)cc24)CC3)CCO1 [Compound 241, (R)-4-(6-(6,7-difluoroquinazolin-4-yl)-5,6,7,8-tetrahydro-1,6-naphthyridin-3-yl)-2-methylmorpholine]
20 | 90% | 30 nM | CC1(C)CN(c2cnc3c(c2)CN(c2ncnc4cc(F)c(F)cc24)CC3)CCO1 [Compound 242, 4-(6-(6,7-difluoroquinazolin-4-yl)-5,6,7,8-tetrahydro-1,6-naphthyridin-3-yl)-2,2-dimethylmorpholine]
21 | 91% | 70 nM | Fc1cc2ncnc(N3CCc4ncc(Nc5cccnc5F)cc4C3)c2cc1F [Compound 243, 6-(6,7-difluoroquinazolin-4-yl)-N-(2-fluoropyridin-3-yl)-5,6,7,8-tetrahydro-1,6-naphthyridin-3-amine]
22 | 63% | 50 nM | c1cnc2nc(N3CCCC3)nc(N3CCc4ncc(N5CCCn6nccc65)cc4C3)c2c1 [Compound 246, 4-(3-(6,7-dihydropyrazolo[1,5-a]pyrimidin-4(5H)-yl)-7,8-dihydro-1,6-naphthyridin-6(5H)-yl)-2-(pyrrolidin-1-yl)pyrido[2,3-d]pyrimidine]
23 | 90% | 150 nM | CC1CN(c2ncnc3cc(F)c(F)cc23)Cc2cc(N3CCOCC3)cnc21 (centres unmarked) [Compound 252, 4-(6-(6,7-difluoroquinazolin-4-yl)-8-methyl-5,6,7,8-tetrahydro-1,6-naphthyridin-3-yl)morpholine]
24 | 96% | 30 nM | CC1CN(c2ncnc3ccc(Cl)cc23)Cc2cc(N3CCOCC3)cnc21 (centres unmarked) [Compound 253, 4-(6-(6-chloroquinazolin-4-yl)-8-methyl-5,6,7,8-tetrahydro-1,6-naphthyridin-3-yl)morpholine]
25 | 94% | 140 nM | Cc1nc(N2CCc3ncc(-c4c(C)cnn4C)cc3C2)c2cc(Cl)ccc2n1 [Compound 256, 6-chloro-4-(3-(1,4-dimethyl-1H-pyrazol-5-yl)-7,8-dihydro-1,6-naphthyridin-6(5H)-yl)-2-methylquinazoline]
26 | 93% | 180 nM | C[C@@H]1CN(c2ncnc3cc(F)c(F)cc23)Cc2cc(N3CCOCC3)cnc21 [Compound 258, (R)-4-(6-(6,7-difluoroquinazolin-4-yl)-8-methyl-5,6,7,8-tetrahydro-1,6-naphthyridin-3-yl)morpholine]
27 | 91% | 200 nM | C[C@@H]1CN(c2ncnc3ccc(F)cc23)Cc2cc(N3CCOCC3)cnc21 [Compound 259, (R)-4-(6-(6-fluoroquinazolin-4-yl)-8-methyl-5,6,7,8-tetrahydro-1,6-naphthyridin-3-yl)morpholine]
28 | 107% | 120 nM | C[C@@H]1CN(c2ncnc3ccc(Cl)cc23)Cc2cc(N3CCOCC3)cnc21 [Compound 260, (R)-4-(6-(6-chloroquinazolin-4-yl)-8-methyl-5,6,7,8-tetrahydro-1,6-naphthyridin-3-yl)morpholine]
